Six molecules from PMC12264794, “Homoleptic complexes of titanium(IV) fused with O^N^O Schiff base derivatives: design, BSA–DNA interaction, molecular docking, DFT and cytotoxicity” (RSC Advances, 2025) can be followed below.

The target of assay [1] is T1, BSA (Bos taurus, UniProt P02769).
T1 construct: purchased Himedia Chemicals
Description: BSA fluorescence quenching titration. In kind it is binding, bovine. The following applies: for KBSA, Stern–Volmer quenching constant: BSA 3 × 10^−6 M, PBS pH 7.4; for Kq, quenching rate constant: τ0 = 1 × 10^−8. The procedure: BSA stock solution (5 mM) was prepared in 5 mM phosphate buffer (pH 7.4) and then kept at 2–6 °C. The binding mechanism of the Ti(IV) complexes with BSA was established using fluorescence titration at 200–500 nm. Metal complexes with BSA were quenched by tracking changes in the fluorescence intensity at a certain excitation wavelength of 285 nm and emission value at 345 nm, respectively.[52] Identical excitation and emission scan rates and slit widths were employed in all investigations. In order to titrate against different metal complex concentrations ranging from 0 to 80 μM, a constant protein concentration of BSA was used. Similarly, the synchronous fluorescence spectra were also acquired by titrating different metal complex concentrations ranging from 0 to 80 μM while maintaining a constant BSA at the specified excitation wavelengths, λ = 15 nm and 60 nm.[53,54]
Ti(IV) complexes of (1 × 10^−5 M) concentration were gradually added, ranging from 0 to 72 μM to bind with BSA (3 × 10^−6 M) of fixed concentration in PBS buffer of pH 7.4. […] This phenomenon might be caused by modifications to the secondary or tertiary structures of BSA, which could have an impact on the tryptophan residues of the BSA microenvironment. Typically, the Stern–Volmer eqn (8) can be used to characterize fluorescence quenching.8 I0/I = 1+KBSA[Q] = 1 + kqτ0[Q]where τ0 is the lifetime of the tryptophan in BSA, which is determined to be 1 × 10^−8, kq is the quenching constant, I0 is the fluorescence intensity of BSA in the absence of complex and I denotes the fluorescence intensities of BSA in the presence of a complex of concentration [Q]. The quenching rate constant, dynamic quenching constant, average lifetime without quencher, and quencher concentration of the biomolecule are represented by the values of kq, KBSA, τ0 and [Q], respectively.
The binding constant (Kb) and the number of binding sites (n) for the static quenching interaction can be determined using the Scatchard eqn (9),9 Log(I0 − I/I) = log K + n log[Q]where I0 and I are the fluorescence intensities of BSA with and without quenchers (complexes). Fig. 7(c), Table 3 and ESI Fig. S70 ^† display the double logarithmic plot of log[I0 − I/I] vs. log[complex].

Assay [2] concerns the target T1, BSA. Description: BSA site marker (ibuprofen, warfarin) fluorescence quenching. It counts as binding, bovine. As to conditions: 298 K; for Kb binding constant, BSA+Ibuprofen: site probe ibuprofen; for Kb binding constant, BSA + Warfarin: site probe warfarin. The protocol:
Fluorescence emission spectroscopy was used for site marker investigation, using an excitation wavelength of 280 nm. As they bind to the two most prevalent drug-binding sites, Sudlow sites I and II, two distinct site marker medications, warfarin (WAR) and ibuprofen (IBU), were utilized as particular site markers (probes) in this experiment. Separately, 10 mg of the site marker probes (WAR) and (IBU) were dissolved in PBS buffer. Subsequently, a known quantity of BSA was added to each probe stock solution to achieve a 5 mM concentration, and the mixture was maintained at 2 to 6 °C. The BSA + site marker binary solution was then titrated with different metal complex concentrations ranging from 0 to 80 μM, while maintaining constant binary solutions of BSA + IBU and BSA + WAR.[55,56]
In our experiment, fluorescence titration techniques were employed to determine the binding position of the BSA molecule. For the fluorescence titration, the excitation wavelength was […], and the emission was monitored between 300 and 500 nm where a fixed concentration of BSA (3 × 10^−6 M) and site markers (BSA + WAR) (BSA + IBU) were taken separately and titrated with the incremental addition of Ti-1-IS to Ti-6-IBr (0–100 μM). By comparing the Ksv values shown with and without site markers, the binding site of Ti(IV) complexes inside BSA was identified (ESI Table S3 ^†).
The Scatchard eqn (9) was used to examine the emission quenching data.

The next assay deals with MCF7 cells. Description: MTT cytotoxicity assay, MCF7. In kind it is cell-based, human. The following applies: 48 h of drug exposure. The procedure:
The in vitro cytotoxicity of the Ti(IV) complexes under investigation was investigated using MTT, a micro-titration colorimetric method. The in vitro cytotoxicity test of the Ti(IV) complexes was evaluated against the cervical cancer cell line (HeLa), human breast cancer cell line (MCF-7) and human kidney normal cell line (HEK-293).[65,66]
In the cytotoxicity assay, tetrazolium salt 3-[4,5-dimethylthiazol-2-yl]-2,5diphenyl tetrazolium bromide (MTT) was utilized to assess cell viability. The MTT powder was diluted in Dulbecco's PBS (stock solution of MTT (5 mg mL^−1)) to attain a final concentration of 0.5 mg mL^−1 and a […] was used to filter and sterilize the stock solution, which was then kept at 2–6 °C. In metabolically active cells, MTT is reduced to produce an insoluble purple formazan product. In the exponential phase, cells were taken out of the stored cultures after the 48-hour recovery period, following seeding onto 96-well plates at a density of 1 × 10^4 cells per well in 100 μL medium at 37 °C in a 95% air and 5% CO2 environment, and the cells were incubated for 12 hours. Cell lines were treated for 48 hours with Ti(IV) complexes at varying doses (9.5–300 μM) and cis-platin as a control (apart from normal cells). After 48 hours of incubation at 37 °C, the medium was removed and 100 μL of DMSO was added to dissolve the […], and the culture plates were shaken for five minutes. A Bio-Rad xMARK™ multi-well plate reader was used to measure the absorbance of each well at 570 nm. Using eqn (2), the percentage viability, which represents the relative viability of the treated cells in comparison to the control cells, was calculated, and the IC50 values and standard deviation of the substances under investigation were calculated in triplicate.2 [drawing 2]
An MTT assay was used to examine the cytotoxic effectiveness of the produced Ti(IV) complexes. After 48 hours of incubation, the cytotoxicity of Ti-1-IS to Ti-6-IBr was evaluated against human cancer cell lines, such as breast carcinoma (MCF7) and cervical cancer (HeLa), as well as the non-cancerous human embryonic kidney (HEK) cell line, by using the widely used therapeutic drug, cis-platin, as a positive control by following the standard protocol.
Background: Formazan colour is commonly taken as a measure of viable cells.

Where [3] appears, read: Scatchard plot, 298 K, no site probe.

Read-outs that look alike come from different tables or passages of the source.

T1 sequence (P02769 25-607): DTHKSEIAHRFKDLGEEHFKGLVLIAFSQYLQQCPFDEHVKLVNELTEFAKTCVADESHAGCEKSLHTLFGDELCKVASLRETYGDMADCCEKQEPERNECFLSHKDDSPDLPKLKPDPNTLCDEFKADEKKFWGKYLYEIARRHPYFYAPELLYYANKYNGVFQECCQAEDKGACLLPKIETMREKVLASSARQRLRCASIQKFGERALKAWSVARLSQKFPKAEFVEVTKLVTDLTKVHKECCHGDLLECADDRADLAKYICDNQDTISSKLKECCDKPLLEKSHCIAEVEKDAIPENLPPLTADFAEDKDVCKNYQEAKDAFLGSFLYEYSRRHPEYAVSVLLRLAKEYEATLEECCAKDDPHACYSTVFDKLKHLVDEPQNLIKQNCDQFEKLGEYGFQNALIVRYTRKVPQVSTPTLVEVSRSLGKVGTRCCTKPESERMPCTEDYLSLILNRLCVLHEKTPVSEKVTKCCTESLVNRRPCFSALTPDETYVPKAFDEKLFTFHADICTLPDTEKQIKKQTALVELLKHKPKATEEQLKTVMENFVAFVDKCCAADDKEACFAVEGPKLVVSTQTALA

In the case of `Brc1ccc2c(c1)C=NN=C(c1ccncc1)[O][Ti]1([O]C(c3ccncc3)=NN=Cc3cc(Br)ccc3[O]1)[O]2` (centres unmarked) [Ti-6-IBr], on BSA [1], the “KBSA, Stern–Volmer quenching constant” value came out at 85000 M⁻¹ and the “Kq, quenching rate constant” value came to 8.5e+12 M⁻¹ s⁻¹. In addition, at BSA [1] (Scatchard plot, 298 K), the “n, number of binding sites (BSA)” value is recorded as 1.35. Moreover, the “Kb binding constant (BSA)” value at BSA [1] (setting [3]) worked out at 140 M⁻¹. Further, on BSA [2], the “Kb binding constant, BSA+Ibuprofen” value is 540 M⁻¹ and the “Kb binding constant, BSA + Warfarin” value was 390 M⁻¹. Moreover, the IC50 (in general, the midpoint of a concentration-inhibition curve) with MCF7 cells is 84.67 ± 0.5 µM.

Take `COc1cccc(C=NN=C([O-])c2ccncc2)c1[O-].COc1cccc(C=NN=C([O-])c2ccncc2)c1[O-].[Ti+4]` [Ti-3-IO]: on BSA [1], the KBSA is 277000 M⁻¹; the “KBSA, Stern–Volmer quenching constant” value was determined as 277000 M⁻¹; the “Kq, quenching rate constant” value is 2.77e+13 M⁻¹ s⁻¹. In addition, the “n, number of binding sites (BSA)” value at BSA [1] (Scatchard plot, 298 K) is on record as 1.42. Also, the “Kb binding constant (BSA)” value on BSA [1] (setting [3]) came to 360 M⁻¹. For the same molecule, on BSA [2], the “Kb binding constant, BSA+Ibuprofen” value was determined as 500 M⁻¹ and the “Kb binding constant, BSA + Warfarin” value worked out at 580 M⁻¹. The molecule further displayed an IC50 with MCF7 cells of 102.9 ± 0.3 µM.

As to `[O-]C(=NN=Cc1c([O-])ccc2ccccc12)c1ccncc1.[O-]C(=NN=Cc1c([O-])ccc2ccccc12)c1ccncc1.[Ti+4]` [Ti-2-IN], at BSA [1], the “KBSA, Stern–Volmer quenching constant” value was determined as 105000 M⁻¹ and the “Kq, quenching rate constant” value stood at 1.05e+13 M⁻¹ s⁻¹. In addition, the “n, number of binding sites (BSA)” value on BSA [1] (Scatchard plot, 298 K) worked out at 1.26. Moreover, at BSA [1] (setting [3]), the “Kb binding constant (BSA)” value was found to be 470 M⁻¹. Besides, at BSA [2], the “Kb binding constant, BSA+Ibuprofen” value was found to be 150 M⁻¹ and the “Kb binding constant, BSA + Warfarin” value amounted to 690 M⁻¹. This molecule gave an IC50 in the assay on MCF7 cells of 85.04 ± 0.5 µM.

On to `[O-]C(=NN=Cc1ccccc1[O-])c1ccncc1.[O-]C(=NN=Cc1ccccc1[O-])c1ccncc1.[Ti+4]` [Ti-1-IS], for which, on BSA [1], the “KBSA, Stern–Volmer quenching constant” value turned out to be 175000 M⁻¹ and the “Kq, quenching rate constant” value was 1.75e+13 M⁻¹ s⁻¹. The “n, number of binding sites (BSA)” value on BSA [1] (Scatchard plot, 298 K) was determined as 1.31. Besides, the “Kb binding constant (BSA)” value at BSA [1] (setting [3]) worked out at 400 M⁻¹. Further, on BSA [2], the “Kb binding constant, BSA+Ibuprofen” value turned out to be 340 M⁻¹ and the “Kb binding constant, BSA + Warfarin” value came out at 480 M⁻¹. Besides, it took 109.22 ± 0.1 µM to reach half-maximal inhibition with MCF7 cells (IC50).

Consider `[O-]C(=NN=Cc1cc(Cl)ccc1[O-])c1ccncc1.[O-]C(=NN=Cc1cc(Cl)ccc1[O-])c1ccncc1.[Ti+4]` [Ti-5-ICl], for which, on BSA [1], the “Kb binding constant (BSA)” value came to 650 M⁻¹; the “KBSA, Stern–Volmer quenching constant” value was determined as 112000 M⁻¹; the “Kq, quenching rate constant” value was 1.12e+13 M⁻¹ s⁻¹. Further, the “n, number of binding sites (BSA)” value on BSA [1] (Scatchard plot, 298 K) turned out to be 1.07. Further, the “Kb binding constant (BSA)” value at BSA [1] (setting [3]) was determined as 650 M⁻¹. On BSA [2], the “Kb binding constant, BSA+Ibuprofen” value turned out to be 350 M⁻¹ and the “Kb binding constant, BSA + Warfarin” value stood at 160 M⁻¹. The same molecule came in with an IC50 in the assay on MCF7 cells of 65.2 ± 1.2 µM.

In the case of `[O-]C(=NN=Cc1cc(F)ccc1[O-])c1ccncc1.[O-]C(=NN=Cc1cc(F)ccc1[O-])c1ccncc1.[Ti+4]` [Ti-4-IF], at BSA [1], the “KBSA, Stern–Volmer quenching constant” value was found to be 197000 M⁻¹ and the “Kq, quenching rate constant” value came to 1.97e+13 M⁻¹ s⁻¹. For the same molecule, the “n, number of binding sites (BSA)” value at BSA [1] (Scatchard plot, 298 K) worked out at 1.60. For the same molecule, the “Kb binding constant (BSA)” value on BSA [1] (setting [3]) amounted to 110 M⁻¹. Also, on BSA [2], the “Kb binding constant, BSA+Ibuprofen” value is 370 M⁻¹ and the “Kb binding constant, BSA + Warfarin” value turned out to be 400 M⁻¹. The IC50 in the assay on MCF7 cells came out at 109.8 ± 0.2 µM.
